Assay results: patent EP0211863B1, “VITAMIN D DERIVATIVES AND METHODS FOR PREPARING SAME” (WISCONSIN ALUMNI RESEARCH FOUNDATION, priority 1985, dated 1986)

How the values were obtained:
[1] = Bone calcium mobilization activity (serum calcium by atomic absorption); format: in vivo; conditions: male weanling rats on low calcium, vitamin D deficient diet for 3 weeks; 650 pmole intrajugularly, 7 h prior to sacrifice; ± standard deviation from the mean
Protocol: Bone calcium mobilization activity of 1α,25-(OH)₂-26-homo-D₃ compounds
Male weanling rats were purchased from Holtzman Co., Madison, Wis. and fed ad libitum a low calcium, vitamin D deficient diet as described by Suda et al (J. Nutrition 100: 1049, 1970) and water for 3 weeks. The rats were then divided into 4 groups of 6 each and were intrajugularly given respectively 650 pmole of either 1α,25-(OH)₂-26-homo-D₃, 1α,25-(OH)₂-(22E)Δ²²-26-homo-D₃ or 1α,25-(OH)₂D₃ dissolved in 0.05 ml of 95% ethanol 7 h prior to sacrifice. […] The rats in the control group were given 0.05 ml of ethanol vehicle in the same manner. They were killed by decapitation, the blood was collected and centrifuged to obtain serum. Serum calcium concentration was determined with an atomic absorption spectrophotometer (Perkin-Elmer Model 214) in presence of 0.1% lanthanum chloride.

[2] = tested on: human promyelocytic leukemia cells (HL-60 cells); experiment: Phagocytosis assay for differentiation activity; format: cell-based; conditions: four days (96 hr) incubation
Protocol: (§1) The human promyelocytic leukemia cell line (HL-60) was maintained in suspension culture in RPMl 1640 medium (Gibco, Grand Island, NY) supplemented with 10% (v/v) heat inactivated fetal calf serum, 100 ug/ml penicillin, 100 µg/ml streptomycin and 0.25 µg/ml fungizone. Cells were cultured in a humidified atmosphere with 5% CO₂. Cell viability was assessed by standard assays, e.g. trypan blue exclusion. Morphological evaluations were done on Wright stained slide preparations.
(§2) Cells were seeded at 1.5 - 2 x 10⁵ cells/ml in 10 ml of medium in tissue culture dishes. […] Control cultures were treated with the same concentration of ethanol. After four days (96 hr) of incubation with test compounds, the cells were harvested from these culture dishes and cell number and viability were determined. […] After incubation of this mixture for 1 hr at 37°C, the number of phagocytic cells was counted (as determined by the trypan blue stained yeast appearing intracellularly) and expressed as a percent of the total viable cells present. […] After standing in a water bath for 30 min, the differentiated cells (i.e. the cells showing formazan blue deposits indicative of NBT reduction) were counted with a hemocytometer and expressed as the percent of total viable cells present.

[3] = tested on: human promyelocytic leukemia cells (HL-60 cells); experiment: NBT-reduction assay for differentiation; format: cell-based; conditions: four days (96 hr) incubation, read-out: concentration to achieve 60% differentiation
Protocol: as §1, §2

In the case of `C=C1/C(=C\C=C2/CCC[C@]3(C)[C@@H]([C@H](C)CCCC(C)(O)CC)CC[C@@H]23)C[C@@H](O)C[C@@H]1O` (stereo partly drawn) [1α,25-(OH)₂-26-homo-D₃, (25ξ)-1α,25-Dihydroxy-26-homovitamin D₃], the “Serum Calcium Concentration” value [1] is reported as 4.6 ± 0.2 ^b^) mg/100 ml.

In the case of `C=C1/C(=C\C=C2/CCC[C@]3(C)[C@@H]([C@H](C)/C=C/CC(C)(O)CC)CC[C@@H]23)C[C@@H](O)C[C@@H]1O` (stereo partly drawn) [1α,25-(OH)₂-(22E)Δ²²-26-homo-D₃, (22E,25ξ)-1α,25-Dihydroxy-22-dehydro-26-homovitamin D₃], the “Serum Calcium Concentration” value [1] is reported as 4.6 ± 0.3 ^b^) mg/100 ml.

For `C=C1/C(=C\C=C2/CCC[C@]3(C)[C@@H]([C@H](C)CCCC(C)(C)O)CC[C@@H]23)C[C@@H](O)C[C@@H]1O` [1α,25-(OH)₂D₃, 1α,25-dihydroxyvitamin D₃], the EC50 ([2]; Homo sapiens, HL-60, phagocytosis assay, read-out: concentration to achieve 50% differentiation) was ~10 nM, the “differentiation (% phagocytic cells)” value ([2]; concentration of 10⁻⁸ molar) was “about 47%” and the “Serum Calcium Concentration” value [1] was 4.5 ± 0.2 ^b^) mg/100 ml. The EC60 [3] was 0.035 µM.
